Reference: ChEMBL document CHEMBL5576060, “Discovery of acetophenone/piperazin-2-one hybrids as selective anti-TNBC cancer agents by causing DNA damage” (Bioorg Med Chem Lett, 2024)
Calls of active or inactive are those of the source. The rule behind the calls is not given here.

How the values were obtained:
[1] = system: MDA-MB-468; assay: Antiproliferative activity against human MDA-MB-468 cells assessed as inhibition of cell growth; type: functional, cell-based
[2] = target: MAP kinase p38 (Homo sapiens) (UniProt O15264+Q15759+Q16539+P53778); assay: Inhibition of P38 phosphorylation in human MDA-MB-468 cells upto 20 uM; type: cell-based
[3] = system: MCF-10A; assay: Effect on P53 expression in human MCF-10A cells at 20 uM measured for 48 hrs by immunoblot analysis; type: functional, cell-based
[4] = system: SK-BR-3; assay: Effect on P53 expression in human SK-BR-3 cells at 20 uM measured for 48 hrs by immunoblot analysis; type: functional, cell-based
[5] = system: MDA-MB-468; assay: Induction of cell cycle arrest in human MDA-MB-468 cells assessed as accumulation of cells at G2 phase at 10 uM measured for 48 hrs by PI staining based flow cytometry analysis (reference value: 16.4%); type: functional
[6] = system: MCF7; assay: Effect on P53 expression in human MCF7 cells at 20 uM measured for 48 hrs by immunoblot analysis; type: functional, cell-based
[7] = system: MCF-10A; assay: Effect on HSP70 expression in human MCF-10A cells at 20 uM measured for 48 hrs by immunoblot analysis; type: functional, cell-based
[8] = system: JIMT-1; assay: Effect on gammaH2AX expression in human JIMT- 1 cells at 20 uM measured for 48 hrs by immunoblot analysis; type: functional, cell-based
[9] = system: MDA-MB-468; assay: Induction of cell cycle arrest in human MDA-MB-468 cells assessed as accumulation of cells at S phase at 5 uM measured for 48 hrs by PI staining based flow cytometry analysis (reference value: 4.39%); type: functional
[10] = system: MCF7; assay: Effect on gammaH2AX expression in human MCF7 cells at 20 uM measured for 48 hrs by immunoblot analysis; type: functional, cell-based
[11] = system: JIMT-1; assay: Effect on P53 expression in human JIMT- 1 cells at 20 uM measured for 48 hrs by immunoblot analysis; type: functional, cell-based
[12] = system: BT-474; assay: Antiproliferative activity against human BT-474 cells assessed as inhibition of cell growth; type: functional, cell-based
[13] = system: MCF-10A; assay: Effect on gammaH2AX expression in human MCF-10A cells at 20 uM measured for 48 hrs by immunoblot analysis; type: functional, cell-based
[14] = system: MDA-MB-468; assay: Induction of cell cycle arrest in human MDA-MB-468 cells assessed as accumulation of cells at G1 phase at 5 uM measured for 48 hrs by PI staining based flow cytometry analysis (reference value: 80.8%); type: functional
[15] = system: MDA-MB-468; assay: Induction of cell cycle arrest in human MDA-MB-468 cells assessed as accumulation of cells at G2 phase at 20 uM measured for 48 hrs by PI staining based flow cytometry analysis (reference value: 16.4%); type: functional
[16] = system: MDA-MB-468; assay: Induction of cell cycle arrest in human MDA-MB-468 cells assessed as accumulation of cells at S phase at 10 uM measured for 48 hrs by PI staining based flow cytometry analysis (reference value: 4.39%); type: functional
[17] = system: MDA-MB-468; assay: Induction of cell cycle arrest in human MDA-MB-468 cells assessed as accumulation of cells at G1 phase at 10 uM measured for 48 hrs by PI staining based flow cytometry analysis (reference value: 80.8%); type: functional
[18] = system: JIMT-1; assay: Effect on P38 expression in human JIMT- 1 cells at 20 uM measured for 48 hrs by immunoblot analysis; type: functional, cell-based
[19] = system: MCF7; assay: Effect on P38 expression in human MCF7 cells at 20 uM measured for 48 hrs by immunoblot analysis; type: functional, cell-based
[20] = system: MDA-MB-468; assay: Induction of cell cycle arrest in human MDA-MB-468 cells assessed as accumulation of cells at G1 phase at 20 uM measured for 48 hrs by PI staining based flow cytometry analysis (reference value: 80.8%); type: functional
[21] = system: BT-474; assay: Effect on gammaH2AX expression in human BT-474 cells at 20 uM measured for 48 hrs by immunoblot analysis; type: functional, cell-based
[22] = system: JIMT-1; assay: Effect on HSP70 expression in human JIMT- 1 cells at 20 uM measured for 48 hrs by immunoblot analysis; type: functional, cell-based
[23] = system: BT-474; assay: Effect on P53 expression in human BT-474 cells at 20 uM measured for 48 hrs by immunoblot analysis; type: functional, cell-based
[24] = system: SK-BR-3; assay: Antiproliferative activity against human SK-BR-3 cells assessed as inhibition of cell growth; type: functional, cell-based
[25] = Selectivity index, ratio of IC50 for antiproliferative activity against human BT-474 cells assessed as inhibition of cell growth to IC50 for antiproliferative activity against human MDA-MB-468 cells assessed as inhibition of cell growth; type: functional
[26] = system: MDA-MB-468; assay: Induction of cell cycle arrest in human MDA-MB-468 cells assessed as accumulation of cells at S phase at 20 uM measured for 48 hrs by PI staining based flow cytometry analysis (reference value: 4.39%); type: functional
[27] = system: BT-474; assay: Effect on HSP70 expression in human BT-474 cells at 20 uM measured for 48 hrs by immunoblot analysis; type: functional, cell-based
[28] = system: MDA-MB-468; assay: Effect on HSF-1 level in human MDA-MB-468 cells upto 20 uM; type: functional, cell-based
[29] = system: JIMT-1; assay: Antiproliferative activity against human JIMT-1 cells assessed as inhibition of cell growth; type: functional, cell-based
[30] = system: SK-BR-3; assay: Effect on HSP70 expression in human SK-BR-3 cells at 20 uM measured for 48 hrs by immunoblot analysis; type: functional, cell-based
[31] = Antiproliferative activity against human MCF-10A cells assessed as inhibition of cell growth; type: toxicity, cell-based
[32] = system: MDA-MB-468; assay: Effect on HSP90 level in human MDA-MB-468 cells upto 20 uM; type: functional, cell-based
[33] = system: SK-BR-3; assay: Effect on P38 expression in human SK-BR-3 cells at 20 uM measured for 48 hrs by immunoblot analysis; type: functional, cell-based
[34] = system: BT-474; assay: Effect on P38 expression in human BT-474 cells at 20 uM measured for 48 hrs by immunoblot analysis; type: functional, cell-based
[35] = system: MCF7; assay: Effect on HSP70 expression in human MCF7 cells at 20 uM measured for 48 hrs by immunoblot analysis; type: functional, cell-based
[36] = system: MDA-MB-468; assay: Potency index, ratio of cisplatin IC50 to test compound IC50 for antiproliferative activity against human MDA-MB-468 cells assessed as inhibition of cell growth; type: functional
[37] = system: MDA-MB-468; assay: Downregulation of HSP70 expression in human MDA-MB-468 cells upto 20 uM; type: functional, cell-based
[38] = system: MDA-MB-468; assay: Induction of cell cycle arrest in human MDA-MB-468 cells assessed as accumulation of cells at G2 phase at 5 uM measured for 48 hrs by PI staining based flow cytometry analysis (reference value: 16.4%); type: functional
[39] = system: MCF7; assay: Antiproliferative activity against human MCF7 cells assessed as inhibition of cell growth; type: functional, cell-based
[40] = system: MDA-MB-468; assay: Induction of DNA damage in human MDA-MB-468 cells assessed as increase in accumulation of gammaH2AX level; type: functional, cell-based; conditions: dose <= 20.0 µM
[41] = system: MDA-MB-468; assay: Antiproliferative activity against human MDA-MB-468 cells assessed as inhibition of cell growth at 10 uM incubated for 72 hrs; type: functional
[42] = system: MCF-10A; assay: Effect on P38 expression in human MCF-10A cells at 20 uM measured for 48 hrs by immunoblot analysis; type: functional, cell-based
[43] = system: MDA-MB-468; assay: Induction of DNA damage in human MDA-MB-468 cells assessed as increase in p53 expression; type: functional, cell-based; conditions: dose <= 20.0 µM
[44] = system: SK-BR-3; assay: Effect on gamma H2AX expression in human SK-BR-3 cells at 20 uM measured for 48 hrs by immunoblot analysis; type: functional, cell-based

O=C1Nc2ccccc2N/C1=C\C(=O)c1cccc(OCc2ccccc2)c1
IC50 [1]: 6.5 µM
inhibition [2]: Active
Activity [3]: inactive
Activity [4]: inactive
Activity [5]: 19.1%
Activity [6]: inactive
Activity [7]: inactive
Activity [8]: inactive
Activity [9]: 9.32%
Activity [10]: inactive
Activity [11]: inactive
IC50 [12]: 28.7 µM
Activity [13]: inactive
Activity [14]: 75%
Activity [15]: 22.8%
Activity [16]: 13.3%
Activity [17]: 69.1%
Activity [18]: inactive
Activity [19]: inactive
Activity [20]: 58.7%
Activity [21]: inactive
Activity [22]: inactive
Activity [23]: inactive
IC50 [24]: > 60 µM
Ratio IC50 [25]: 4.4
Activity [26]: 20%
Activity [27]: inactive
Activity [28]: inactive
IC50 [29]: 44.9 µM
Activity [30]: inactive
IC50 [31]: 47.5 µM
Activity [32]: inactive
Activity [33]: inactive
Activity [34]: inactive
Activity [35]: inactive
Ratio IC50 [36]: 2
Activity [37]: Active
Activity [38]: 17.4%
IC50 [39]: 41.6 µM
Activity [40]: Dose-Dependent Effect
inhibition at 10 µM [41]: 50%
Activity [42]: inactive
Activity [43]: Dose-Dependent Effect
Activity [44]: inactive

O=C1Nc2ccccc2N/C1=C\C(=O)c1ccccc1
IC50 [1]: 7.73 µM
IC50 [12]: > 10 µM
IC50 [24]: > 10 µM
IC50 [29]: > 10 µM
IC50 [31]: > 10 µM
IC50 [39]: > 10 µM
inhibition at 10 µM [41]: 50%
